Measurements taken from patent publication US4061645A, “2-Trichloromethyl-5-methylsulfinyl-1,3,4-thiadiazole” (Schering Aktiengesellschaft, priority 1972, dated 1977).
Read-outs that look alike come from different tables or passages of the source.

Legend:
Rhizoctonia solani = assay: Limit concentration of soil-fungicidal effectiveness, Rhizoctonia solani, infested soil seeded with peas (Example 1); assay type: in vivo; details: soil, 480 h, read-out: Limit concentration of the fungicidal effectiveness
Description: Limit concentrations of the soil-fungicidal effectiveness at homogeneous mixture of the products with the infested soil. Basic condition in the evaluation are a sound root formation without fungus necroses and germination of the seed of at least 90% compared with the result obtained in steamed soil. Per concentration there were seeded 25 grains of peas of the variety "Miracle of Kelvedon" (marrow pea) without a waiting period. The cultivation time in the tests was 20 to 23 days at a temperature of 22°-25° C. Four commercial products were included in the test series.
Rhizoctania solani: -- Steamed compost soil was inoculated with mycelium of Rhizoctonia solani.

Botrytis cinerea = assay: Agar test (Example 7), Botrytis; assay type: cell-based; details: 10 ppm; 5 days at 22° C; control 100
Description: (§1) The fungicidal action of the agents according to the invention was tested in artificial nutrient media against plant-pathogenic fungi in Petri dishes (agar test). The procedure was to sterilize the medium consisting of 2% malt extract and 1.5% agar-agar powder. Before the solidification of the medium, the active substances were added to it, mixing thoroughly, so that the medium received 10 parts of active substance per million (ppm). After the solidification of the medium, the latter was inoculated with a platinum dropper which contained 100 spores each of the fungi to be tested, and after five days at 22° C, an evaluation was made by measuring the diameter of the colonies in mm.

Helminthosporium sativum = assay: Agar test (Example 7), Helminthosporium; assay type: cell-based; details: 10 ppm; 5 days at 22° C; control 100
Description: as §1

Asperqilus niger = assay: Agar test (Example 7), Aspergillus; assay type: cell-based; details: 10 ppm; 5 days at 22° C; control 100
Description: as §1

Stemphylium ilicis = assay: Agar test (Example 7), Stemphylium; assay type: cell-based; details: 10 ppm; 5 days at 22° C; control 100
Description: as §1

[1] = tested on: Colletotrichum gloeosporioides; assay: Agar test (Example 7), Colletotrichum; assay type: cell-based; details: 10 ppm; 5 days at 22° C; control 100
Description: as §1

Pythium ultimum = Pythium ultimum infested compost soil, marrow peas (Example 2); assay type: in vivo; details: for Weight of fresh plant: 3 weeks; for Number of sound peas after 3 wks.: of 25 grains
Excerpt: Steamed compost soil was inoculated with mycelium of Pythium ultimum.

[2] = tested on: Fusarium oxysporum f. callistephi; assay: Fusarium infested compost soil, Callistephus chinesis seedlings (Example 5); assay type: in vivo; details: of 4 seedlings
Excerpt: Steamed compost soil was inoculated with a spore suspension of Fusarium oxysporum f. callistephi. After homogeneous mixture of the products with the infested soil, the products were present as 20% powder preparations, and after a waiting period of 8 days, there were set out per concentration 4 seedlings of Callistephus chinesis, master aster "Sun Ray" as host plants.

[3] = 10 mg active ingr. per liter of soil
[4] = 20 mg active ingr. per liter of soil
[5] = 30 mg active ingr. per liter of soil
[6] = 200 mg active ingr. per liter of soil

C[S+]([O-])c1nnc(CCl)s1 (stereo not shown) [Compound 2, 2-chloromethyl-5-methylsulfinyl-1,3,4-thiadiazole]
minimal effective concentration (Rhizoctonia solani; 20 to 23 days, 22°-25° C): 50 µg/mL

CC(C)[S+]([O-])c1nnc(C(Cl)Cl)s1 (stereo not shown) [Compound 6, 2-dichloromethyl-5-isopropylsulfinyl-1,3,4-thiadiazole]
minimal effective concentration (Rhizoctonia solani; 20 to 23 days, 22°-25° C): 50 µg/mL

CCCCC[S+]([O-])c1nnc(C(Cl)Cl)s1 (stereo not shown) [Compound 7, 2-dichloromethyl-5-amylsulfinyl-1,3,4-thiadiazole]
diameter of the colonies (Botrytis cinerea): 22 mm
diameter of the colonies (Helminthosporium sativum): 0 mm
diameter of the colonies (Asperqilus niger): 0 mm
minimal effective concentration (Rhizoctonia solani; 20 to 23 days, 22°-25° C): 50 µg/mL
diameter of the colonies (Stemphylium ilicis): 0 mm
diameter of the colonies [1]: 0 mm

CCC[S+]([O-])c1nnc(C(Cl)(Cl)Cl)s1 (stereo not shown) [Compound 10, 2-trichloromethyl-5-propylsulfinyl-1,3,4-thiadiazole]
diameter of the colonies (Botrytis cinerea): 0 mm
diameter of the colonies (Helminthosporium sativum): 0 mm
diameter of the colonies (Asperqilus niger): 0 mm
minimal effective concentration (Rhizoctonia solani; 20 to 23 days, 22°-25° C): 20 µg/mL
diameter of the colonies (Stemphylium ilicis): 0 mm
diameter of the colonies [1]: 0 mm

CC(C)[S+]([O-])c1nnc(C(Cl)(Cl)Cl)s1 (stereo not shown) [Compound 11, 2-trichloromethyl-5-isopropylsulfinyl-1,3,4-thiadiazole]
minimal effective concentration (Rhizoctonia solani; 20 to 23 days, 22°-25° C): 50 µg/mL

CCCC[S+]([O-])c1nnc(C(Cl)(Cl)Cl)s1 (stereo not shown) [Compound 12, 2-trichloromethyl-5-butylsulfinyl-1,3,4-thiadiazole]
diameter of the colonies (Botrytis cinerea): 0 mm
diameter of the colonies (Helminthosporium sativum): 0 mm
diameter of the colonies (Asperqilus niger): 0 mm
minimal effective concentration (Rhizoctonia solani; 20 to 23 days, 22°-25° C): 50 µg/mL
diameter of the colonies (Stemphylium ilicis): 0 mm
diameter of the colonies [1]: 0 mm

CCCCCCC[S+]([O-])c1nnc(C(Cl)(Cl)Cl)s1 (stereo not shown) [Compound 13, 2-trichloromethyl-5-heptylsulfinyl-1,3,4-thiadiazole]
diameter of the colonies (Botrytis cinerea): 13 mm
diameter of the colonies (Helminthosporium sativum): 0 mm
diameter of the colonies (Asperqilus niger): 0 mm
minimal effective concentration (Rhizoctonia solani; 20 to 23 days, 22°-25° C): 200 µg/mL
diameter of the colonies (Stemphylium ilicis): 0 mm
diameter of the colonies [1]: 0 mm

CCCCCCCC[S+]([O-])c1nnc(C(Cl)(Cl)Cl)s1 (stereo not shown) [Compound 14, 2-trichloromethyl-5-octylsulfinyl-1,3,4-thiadiazole]
minimal effective concentration (Rhizoctonia solani; 20 to 23 days, 22°-25° C): 100 µg/mL

CS(=O)(=O)c1nnc(CCl)s1 [Compound 15, 2-chloromethyl-5-methylsulfonyl-1,3,4-thiadiazole]
minimal effective concentration (Rhizoctonia solani; 20 to 23 days, 22°-25° C): 100 µg/mL
Weight of fresh plant (Pythium ultimum; [3]): 20 g
Number of sound peas after 3 wks. (Pythium ultimum; [3]): 22
Weight of fresh plant (Pythium ultimum; [4]): 20 g
Number of sound peas after 3 wks. (Pythium ultimum; [4]): 23
Weight of fresh plant (Pythium ultimum; [5]): 20 g
Number of sound peas after 3 wks. (Pythium ultimum; [5]): 24

CC(C)S(=O)(=O)c1nnc(CCl)s1 [Compound 16, 2-chloromethyl-5-isopropylsulfonyl-1,3,4-thiadiazole]
minimal effective concentration (Rhizoctonia solani; 20 to 23 days, 22°-25° C): 200 µg/mL

CC(C)S(=O)(=O)c1nnc(C(Cl)Cl)s1 [Compound 20, 2-dichloromethyl-5-isopropylsulfonyl-1,3,4-thiadiazole]
minimal effective concentration (Rhizoctonia solani; 20 to 23 days, 22°-25° C): 50 µg/mL

CS(=O)(=O)c1nnc(CBr)s1 [Compound 30, 2-bromomethyl-5-methylsulfonyl-1,3,4-thiadiazole]
minimal effective concentration (Rhizoctonia solani; 20 to 23 days, 22°-25° C): 150 µg/mL
Weight of fresh plant (Pythium ultimum; [3]): 18 g
Number of sound peas after 3 wks. (Pythium ultimum; [3]): 21
Weight of fresh plant (Pythium ultimum; [4]): 24 g
Number of sound peas after 3 wks. (Pythium ultimum; [4]): 24
Weight of fresh plant (Pythium ultimum; [5]): 18 g
Number of sound peas after 3 wks. (Pythium ultimum; [5]): 22

CCS(=O)(=O)c1nnc(CBr)s1 [Compound 31, 2-bromomethyl-5-ethylsulfonyl-1,3,4-thiadiazole]
minimal effective concentration (Rhizoctonia solani; 20 to 23 days, 22°-25° C): > 200 µg/mL

C[S+]([O-])c1nnc(CF)s1 (stereo not shown) [Compound 33, 2-fluoromethyl-5-methylsulfinyl-1,3,4-thiadiazole]
minimal effective concentration (Rhizoctonia solani; 20 to 23 days, 22°-25° C): 20 µg/mL

CS(=O)(=O)c1nnc(CF)s1 [Compound 34, 2-fluoromethyl-5-methylsulfonyl-1,3,4-thiadiazole]
minimal effective concentration (Rhizoctonia solani; 20 to 23 days, 22°-25° C): 30 µg/mL

C[S+]([O-])c1nnc(C(F)(F)F)s1 (stereo not shown) [Compound 35, 2-trifluoromethyl-5-methylsulfinyl-1,3,4-thiadiazole]
minimal effective concentration (Rhizoctonia solani; 20 to 23 days, 22°-25° C): 20 µg/mL

CC[S+]([O-])c1nnc(C(F)(F)F)s1 (stereo not shown) [Compound 36, 2-trifluoromethyl-5-ethylsulfinyl-1,3,4-thiadiazole]
minimal effective concentration (Rhizoctonia solani; 20 to 23 days, 22°-25° C): 20 µg/mL

CC(C)C[S+]([O-])c1nnc(C(F)(F)F)s1 (stereo not shown) [Compound 37, 2-trifluoromethyl-5-isobutylsulfinyl-1,3,4-thiadiazole]
minimal effective concentration (Rhizoctonia solani; 20 to 23 days, 22°-25° C): 100 µg/mL

CCCCC[S+]([O-])c1nnc(C(F)(F)F)s1 (stereo not shown) [Compound 38, 2-trifluoromethyl-5-pentylsulfinyl-1,3,4-thiadiazole]
minimal effective concentration (Rhizoctonia solani; 20 to 23 days, 22°-25° C): 40 µg/mL

CCCCCC[S+]([O-])c1nnc(C(F)(F)F)s1 (stereo not shown) [Compound 39, 2-trifluoromethyl-5-hexylsulfinyl-1,3,4-thiadiazole]
minimal effective concentration (Rhizoctonia solani; 20 to 23 days, 22°-25° C): 40 µg/mL

CCS(=O)(=O)c1nnc(C(F)(F)F)s1 [Compound 40, 2-trifluoromethyl-5-ethylsulfonyl-1,3,4-thiadiazole]
minimal effective concentration (Rhizoctonia solani; 20 to 23 days, 22°-25° C): 20 µg/mL

CC(C)S(=O)(=O)c1nnc(C(F)(F)F)s1 [Compound 41, 2-trifluoromethyl-5-isopropylsulfonyl-1,3,4-thiadiazole]
minimal effective concentration (Rhizoctonia solani; 20 to 23 days, 22°-25° C): 20 µg/mL

CC(C)CS(=O)(=O)c1nnc(C(F)(F)F)s1 [Compound 42, 2-trifluoromethyl-5-isobutylsulfonyl-1,3,4-thiadiazole]
minimal effective concentration (Rhizoctonia solani; 20 to 23 days, 22°-25° C): 100 µg/mL

CCCCCCS(=O)(=O)c1nnc(C(F)(F)F)s1 [Compound 43, 2-trifluoromethyl-5-hexylsulfonyl-1,3,4-thiadiazole]
minimal effective concentration (Rhizoctonia solani; 20 to 23 days, 22°-25° C): 50 µg/mL

CCCCCCCS(=O)(=O)c1nnc(C(F)(F)F)s1 [Compound 44, 2-trifluoromethyl-5-heptylsulfonyl-1,3,4-thiadiazole]
minimal effective concentration (Rhizoctonia solani; 20 to 23 days, 22°-25° C): 50 µg/mL

CS(=O)(=O)c1nnc(C(F)(F)C(F)(F)F)s1 [Compound 45, 2-pentafluoroethyl-5-methylsulfonyl-1,3,4-thiadiazole]
minimal effective concentration (Rhizoctonia solani; 20 to 23 days, 22°-25° C): > 100 µg/mL

CS(=O)(=O)c1nnc(C(F)(F)C(F)(F)C(F)(F)F)s1 [Compound 46, 2-heptafluoropropyl-5-methylsulfonyl-1,3,4-thiadiazole]
minimal effective concentration (Rhizoctonia solani): 100 µg/mL

CC(Cl)(Cl)c1nnc(S(C)(=O)=O)s1 [Compound 47, 2-(1,1-dichloroethyl)-5-methylsulfonyl-1,3,4-thiadiazole]
minimal effective concentration (Rhizoctonia solani; 20 to 23 days, 22°-25° C): 50 µg/mL

CCC(Cl)c1nnc([S+](C)[O-])s1 (stereo not shown) [Compound 48, 2-(1-chloropropyl)-5-methylsulfinyl-1,3,4-thiadiazole]
minimal effective concentration (Rhizoctonia solani; 20 to 23 days, 22°-25° C): 100 µg/mL

CCC(Cl)c1nnc(S(C)(=O)=O)s1 (stereo not shown) [Compound 49, 2-(1-chloropropyl)-5-methylsulfonyl-1,3,4-thiadiazole]
minimal effective concentration (Rhizoctonia solani; 20 to 23 days, 22°-25° C): 50 µg/mL

CC(Br)c1nnc(S(C)(=O)=O)s1 (stereo not shown) [Compound 50, 2-(1-bromoethyl)-5-methylsulfonyl-1,3,4-thiadiazole]
minimal effective concentration (Rhizoctonia solani; 20 to 23 days, 22°-25° C): 100 µg/mL

CC(C)C(Br)c1nnc(S(C)(=O)=O)s1 (stereo not shown) [Compound 51, 2-(1-bromisobutyl)-5-methylsulfonyl-1,3,4-thiadiazole]
minimal effective concentration (Rhizoctonia solani; 20 to 23 days, 22°-25° C): 50 µg/mL

O=C1C2CC=CCC2C(=O)N1SC(Cl)(Cl)Cl (stereo not shown) [N-(trichloromethylthio)-cyclohex-4-ene-1,2-dicarboximide, reference compound]
Number of attacked plants after 3 weeks ([2]; 50 mg active ingredient per liter of soil): 4
Number of attacked plants after 3 weeks ([2]; 100 mg active ingredient per liter of soil): 4
Number of attacked plants after 3 weeks ([2]; 200 mg active ingredient per liter of soil): 4
minimal effective concentration (Rhizoctonia solani): 300 µg/mL
Weight of fresh plant (Pythium ultimum; [6]): 6 g
Number of sound peas after 3 wks. (Pythium ultimum; [6]): 13
